Patent US6734163B2, “Compositions and methods for inhibiting cellular proliferation” (EntreMed, Inc., priority 1997, dated 2004)
“Also recorded” adds a separate entry of the source. Like-named read-outs stand apart in the source and are kept apart here.

Test system: human umbilical vein endothelial (HUVE) cells
Experiment: bFGF-induced proliferation of HUVE cells (uridine incorporation)
Type: cell-based
Conditions: for antiproliferative activity, plasma TFPI compared with HepG2 TFPI: HUVE cell proliferation assay, FIG. 4; for Effect on Proliferation: bFGF 10 ng/ml, 48 hours, HUVE cells
Protocol: Proliferation assays familiar to those skilled in the art using human umbilical vein endothelial (HUVE) cells were used to determine the effect of TFPI on bFGF-induced proliferation of human umbilical vein endothelial cells.
The proliferation assay involved the routine culturing of human umbilical vein endothelial (HUVE) cells to confluency in EGM media. The cells were trypsinized and plated in a 96-well plate at 5000 cells per well per 100 μL EBM media. The cells were allowed to adhere to the plate for at least 2 hours. Next, bFGF at 10 ng/ml and TFPI at various concentrations were added to the wells. The cells were cultured for 48 hours after which cell proliferation was determined using a standard uridine incorporation method.
Proliferation assays using HUVE cells, as described in Example 1, were used to determine the effect of heparin on TFPI inhibition of bFGF-induced proliferation. The purpose of this study was to determine whether heparin was able to neutralize the antiproliferative activity of TFPI.
TFPI was pre-incubated with equimolar concentrations of heparin and with concentrations of heparin that were five-fold in excess of the concentration of TFPI. The results are summarized below and are presented graphically in FIGS. 5a and 5b.
Cell proliferation assays, as described in Example 1, were conducted to determine the relative potency of native TFPI versus recombinant TFPI.
Cell proliferation assays, as described in Example 1, were conducted using full length recombinant TFPI, Platelet Factor 4 (PF-4), and recombinant Kringle 1-3 of Angiostatin™ peptide. Both PF-4 and Angiostatin™ peptide are known endogenous inhibitors of angiogenesis. PF-4 is a protein involved in the blood coagulation cascade and is referenced as an inhibitor of angiogenesis by Maione, T. et al. in the article “Inhibition of Angiogenesis by Recombinant Human Platelet Factor-4 and Related Peptides” Science 247:77 (1990). Angiostatin is a fragment of plasminogen and its inhibitory effect on angiogenesis is described by Cao, Y. et al. in the article “Kringle Domains of Human Angiostatin” J. Biol. Chem. 271:1 (1996).
PF-4 and TFPI were tested for inhibition of human umbilical vein endothelial cell (HUVEC) proliferation. Angiostatin™ peptide was tested for the inhibition of bovine capillary endothelial (BCE) proliferation.
Cell proliferation assays, as described above in Example 1, were conducted using fragments of recombinant TFPI containing the following domains: Kunitz-1, Kunitz-2, or Kunitz-3.

[1] = Example 3, native versus recombinant TFPI, read-out: Fifty percent inhibition of the bFGF-induced proliferation of HUVE cells

Substance | antiproliferative activity, plasma TFPI compared with HepG2 TFPI | Effect on Proliferation | IC50 [1] [nM] | further results
PF-4: Platelet Factor 4, protein of the blood coagulation cascade, known endogenous inhibitor of angiogenesis [reference compound] | – | – | – | IC50 (Example 4, read-out: concentration required for 50% inhibition of HUVE cell proliferation): 1250 nM
Purified From HepG2 cells: TFPI purified from HepG2 cells containing full length and carboxyl-terminal lacking molecules | comparable activities | Inhibition of Proliferation | – | –
Purified From Human Plasma: full length, fully glycosylated TFPI (molecular weight 43,000) purified from human plasma | comparable activities | Inhibition of Proliferation | 75 | –
Recombinant, Full Length: full length, partially glycosylated TFPI (molecular weight 35,000) produced recombinantly | – | Inhibition of Proliferation | 150 | potency relative to recombinant PF-4 (HUVE cell proliferation, 50% inhibition compared): approximately ten times more potent; IC50 (HUVEC proliferation, Example 4 table, read-out: Concentration for 50% Inhibition): ~125 nM; activity relative to recombinant Kringle 1-3 of angiostatin (TFPI on HUVE cells versus Kringle 1-3 on BCE cells): more active
TFPI: tissue factor pathway inhibitor, source not specified in the heparin experiment (SEQ ID No. 1) | – | – | – | Antiproliferative Activity of TFPI (effect of heparin) (TFPI pre-incubated with equimolar heparin): did not lose its antiproliferative activity; also recorded: No Effect; Antiproliferative Activity of TFPI (effect of heparin) (TFPI pre-incubated with heparin five-fold in excess of TFPI): did not lose its antiproliferative activity; also recorded: No Effect
